ChEMBL document CHEMBL1201862, “PubChem BioAssay data set” (2004)
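Cells were grown in 96-well plates and exposed to each compound for 48 hours at five concentrations; endpoints were interpolated linearly between bracketing concentrations, or set to the highest concentration if not reached. Here, GI50 denotes the concentration required for 50% inhibition of growth.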 Calls of active or inactive are those of the source. No stated cut-off is given here; in the data, active = GI50 up to about 1.1 µM and inactive = higher.

Columns and labels:
Experiment in all cases: NCI-60 cell line screen, 48 h
UACC-257 = test system: UACC-257
DU-145 = test system: DU-145
K562 = test system: K562
MOLT-4 = test system: MOLT-4
EKVX = test system: EKVX
MDA-N = test system: MDA-N
SK-MEL-5 = test system: SK-MEL-5
IGROV-1 = test system: IGROV-1
HL-60 = test system: HL-60
HCT-116 = test system: HCT-116
SK-MEL-2 = test system: SK-MEL-2
786-0 = test system: 786-0
NCI-H460 = test system: NCI-H460
BT-549 = test system: BT-549
OVCAR-5 = test system: OVCAR-5
PC-3 = test system: PC-3
OVCAR-4 = test system: OVCAR-4
MCF7 = test system: MCF7
UO-31 = test system: UO-31
NCI-H226 = test system: NCI-H226
A549 = test system: A549
SF-539 = test system: SF-539
NCI-H522 = test system: NCI-H522
HOP-62 = test system: HOP-62
HOP-92 = test system: HOP-92
T47D = test system: T47D
SK-MEL-28 = test system: SK-MEL-28
CAKI-1 = test system: CAKI-1
A498 = test system: A498
MDA-MB-231 = test system: MDA-MB-231
U-251 = test system: U-251
OVCAR-8 = test system: OVCAR-8
HCC 2998 = test system: HCC 2998
RPMI-8226 = test system: RPMI-8226
OVCAR-3 = test system: OVCAR-3
SNB-75 = test system: SNB-75
ACHN = test system: ACHN
MDA-MB-435 = test system: MDA-MB-435
SW-620 = test system: SW-620
TK-10 = test system: TK-10
NCI/ADR-RES = test system: NCI/ADR-RES
SF-295 = test system: SF-295
KM12 = test system: KM12
SF-268 = test system: SF-268
Hs-578T = test system: Hs-578T
M14 = test system: M14
HT-29 = test system: HT-29
NCI-H23 = test system: NCI-H23
SR = test system: SR
RXF 393 = test system: RXF 393
HCT-15 = test system: HCT-15
LOX IMVI = test system: LOX IMVI
COLO 205 = test system: COLO 205
SK-OV-3 = test system: SK-OV-3
SNB-19 = test system: SNB-19
Malme-3M = test system: Malme-3M
UACC-62 = test system: UACC-62
CCRF-CEM = test system: CCRF-CEM

O=C1/C(=C/c2ccccc2[N+](=O)[O-])N=C(c2ccccc2)N1C1Nc2cc3c(cc2S1)NC(N1C(=O)/C(=C/c2ccccc2[N+](=O)[O-])N=C1c1ccccc1)S3 (configuration not stated)
GI50 (UACC-257): 91 µM (inactive) | GI50 (DU-145): 30.8 µM (inactive) | GI50 (K562): 37.1 µM (inactive) | GI50 (MOLT-4): 19.3 µM (inactive) | GI50 (EKVX): 27.7 µM (inactive) | GI50 (MDA-N): 36.8 µM (inactive) | GI50 (SK-MEL-5): 42.1 µM (inactive) | GI50 (IGROV-1): 55.2 µM (inactive) | GI50 (HL-60): 24 µM (inactive) | GI50 (HCT-116): 16 µM (inactive) | GI50 (SK-MEL-2): 36.8 µM (inactive) | GI50 (786-0): 22.3 µM (inactive) | GI50 (NCI-H460): 5.45 µM (inactive) | GI50 (BT-549): 40.4 µM (inactive) | GI50 (OVCAR-5): > 100 µM (inactive) | GI50 (PC-3): 32.9 µM (inactive) | GI50 (OVCAR-4): 53.5 µM (inactive) | GI50 (MCF7): 18.7 µM (inactive) | GI50 (UO-31): 24.1 µM (inactive) | GI50 (NCI-H226): 31.5 µM (inactive) | GI50 (A549): 12.6 µM (inactive) | GI50 (SF-539): 44.8 µM (inactive) | GI50 (NCI-H522): 17.3 µM (inactive) | GI50 (HOP-62): 89.5 µM (inactive) | GI50 (HOP-92): > 100 µM (inactive) | GI50 (T47D): 25.1 µM (inactive) | GI50 (SK-MEL-28): > 100 µM (inactive) | GI50 (CAKI-1): 39.7 µM (inactive) | GI50 (A498): 27.5 µM (inactive) | GI50 (MDA-MB-231): 61.5 µM (inactive) | GI50 (U-251): 31 µM (inactive) | GI50 (OVCAR-8): 39.5 µM (inactive) | GI50 (HCC 2998): 16.7 µM (inactive) | GI50 (RPMI-8226): 18.1 µM (inactive) | GI50 (OVCAR-3): 37.2 µM (inactive) | GI50 (SNB-75): > 100 µM (inactive) | GI50 (ACHN): 28.4 µM (inactive) | GI50 (MDA-MB-435): 51.6 µM (inactive) | GI50 (SW-620): 50.4 µM (inactive) | GI50 (TK-10): 72.4 µM (inactive) | GI50 (NCI/ADR-RES): 25.3 µM (inactive) | GI50 (SF-295): 63.8 µM (inactive) | GI50 (KM12): 52.4 µM (inactive) | GI50 (SF-268): 47.3 µM (inactive) | GI50 (Hs-578T): 50 µM (inactive) | GI50 (M14): 68.5 µM (inactive) | GI50 (HT-29): 36.2 µM (inactive) | GI50 (NCI-H23): 29 µM (inactive) | GI50 (SR): 8.51 µM (inactive) | GI50 (RXF 393): > 100 µM (inactive) | GI50 (HCT-15): 32.8 µM | GI50 (LOX IMVI): 35 µM (inactive)

C=C1C(=O)OC2C1CC(O)/C(C)=C\CCC1(C)OC21 (configuration not stated)
GI50 (UACC-257): 34 µM (inactive) | GI50 (DU-145): 32.8 µM (inactive) | GI50 (MOLT-4): 7.35 µM (inactive) | GI50 (EKVX): 36.7 µM (inactive) | GI50 (MDA-N): 19.1 µM (inactive) | GI50 (SK-MEL-5): 21 µM (inactive) | GI50 (IGROV-1): 32.5 µM (inactive) | GI50 (HL-60): 23.7 µM (inactive) | GI50 (HCT-116): 29.8 µM (inactive) | GI50 (SK-MEL-2): 17.5 µM (inactive) | GI50 (786-0): 31 µM (inactive) | GI50 (NCI-H460): 31.8 µM (inactive) | GI50 (COLO 205): 29.8 µM (inactive) | GI50 (BT-549): 23 µM (inactive) | GI50 (OVCAR-5): 23.8 µM (inactive) | GI50 (PC-3): 23.2 µM (inactive) | GI50 (OVCAR-4): 25.6 µM (inactive) | GI50 (MCF7): 28.2 µM (inactive) | GI50 (UO-31): 22.9 µM (inactive) | GI50 (A549): 35.5 µM (inactive) | GI50 (SF-539): 34.2 µM (inactive) | GI50 (NCI-H522): 14.8 µM (inactive) | GI50 (HOP-62): 20 µM (inactive) | GI50 (SK-OV-3): 49.9 µM (inactive) | GI50 (HOP-92): 34.6 µM (inactive) | GI50 (SNB-19): 48.1 µM (inactive) | GI50 (T47D): 46.1 µM (inactive) | GI50 (SK-MEL-28): 33.3 µM (inactive) | GI50 (A498): 43 µM (inactive) | GI50 (MDA-MB-231): 15.5 µM (inactive) | GI50 (U-251): 20.3 µM (inactive) | GI50 (OVCAR-8): 33.8 µM (inactive) | GI50 (HCC 2998): 35.1 µM (inactive) | GI50 (RPMI-8226): 21.4 µM (inactive) | GI50 (OVCAR-3): 17.4 µM (inactive) | GI50 (SNB-75): 39.8 µM (inactive) | GI50 (ACHN): 39.5 µM (inactive) | GI50 (MDA-MB-435): 27.2 µM (inactive) | GI50 (SW-620): 38.8 µM (inactive) | GI50 (TK-10): 39.3 µM (inactive) | GI50 (Malme-3M): 19.2 µM (inactive) | GI50 (NCI/ADR-RES): 22.7 µM (inactive) | GI50 (SF-295): 30.3 µM (inactive) | GI50 (KM12): 32.9 µM (inactive) | GI50 (SF-268): 25.1 µM (inactive) | GI50 (Hs-578T): 23.5 µM (inactive) | GI50 (M14): 23.1 µM (inactive) | GI50 (HT-29): 27.5 µM (inactive) | GI50 (NCI-H23): 31.3 µM (inactive) | GI50 (UACC-62): 21.2 µM (inactive) | GI50 (SR): 20.2 µM (inactive) | GI50 (RXF 393): 16.8 µM (inactive) | GI50 (HCT-15): 16.3 µM | GI50 (LOX IMVI): 27 µM (inactive) | GI50 (CCRF-CEM): 25.4 µM (inactive)
